The source of these data is ChEMBL document CHEMBL1667731, “N-hydroxypyridones, phenylhydrazones, and a quinazolinone from Isaria farinosa” (J Nat Prod, 2011).

One may read the pIC50 as the negative decadic logarithm of the IC50, by convention in mol/L.

Each structure is given as a SMILES string. pIC50: −log10 of the molar value.

One test has as its system A549. The test can be described thus: Cytotoxicity against human A549 cells assessed as inhibition of cell viability by MTT assay. The format is functional, cell-based. In general terms: Tetrazolium dyes change colour on reduction, which living cells bring about.
In a further test the test system is Streptococcus pneumoniae. As to the kind of experiment: Antibacterial activity against Streptococcus pneumoniae CGMCC 1.1692 after 24 hrs. Type of test: functional, organism-based. The conditions noted are these: CGMCC 1.1692, 24 h.
In the next test the test system is Staphylococcus aureus. As to the kind of experiment: Antibacterial activity against Staphylococcus aureus CGMCC 1.2465 after 24 hrs. To be noted: CGMCC 1.2465, 24 h.
A further test concerns Candida albicans. The test can be described thus: Antifungal activity against Candida albicans CGMCC 2.2086 after 24 hrs. The conditions noted are these: CGMCC 2.2086, 24 h. The format is functional, organism-based.

On to `O=c1[nH]c(Cc2ccc(O)cc2)nc2ccccc12`, for which the pIC50 with A549 (Homo sapiens, A549) is less than 3.92; in the test with A549 (a549) it was less than 3.92; in the test on Streptococcus pneumoniae, less than 3.82; in the test on Staphylococcus aureus it was less than 3.82.

On to `C[C@@H]1[C@H](O)[C@@H](C)/C=C/C=C/C=C/C=C/C=C/C=C/C=C/[C@H](O[C@@H]2O[C@H](C)[C@@H](O)[C@H](N)[C@@H]2O)C[C@@H]2O[C@](O)(C[C@@H](O)C[C@@H](O)[C@H](O)CC[C@@H](O)C[C@@H](O)CC(=O)O[C@H]1C)C[C@H](O)[C@H]2C(=O)O` [AMPHOTERICIN B], for which, in the test with Candida albicans, the pIC50 was 6.14.

As for `CC1(C)S[C@@H]2[C@H](NC(=O)[C@H](N)c3ccccc3)C(=O)N2[C@H]1C(=O)O` [AMPICILLIN], the negative-log IC50 (pIC50) was 5.97 with Streptococcus pneumoniae and 7.22 in the test on Staphylococcus aureus.

`C/C(=N\Nc1ccccc1C(=O)O)C(=O)NCC(=O)O` [FARYLHYDRAZONE A]: the pIC50 with A549 (Homo sapiens, A549) is less than 3.92; in the test on A549 (a549), less than 3.92; in the test with Streptococcus pneumoniae it was less than 3.82; in the test with Staphylococcus aureus, less than 3.82.

As to `C/C(=N\Nc1ccccc1C(=O)O)C(=O)O` [FARYLHYDRAZONE B], the pIC50 in the test with A549 (Homo sapiens, A549) is less than 3.92; in the test on A549 (a549), less than 3.92; in the test with Streptococcus pneumoniae it was less than 3.82; in the test on Staphylococcus aureus, less than 3.82.

In the case of `CC[C@@H](C)C[C@@H](C)/C=C(C)/C=C/C=C/C(=O)c1c(O)c([C@]2(O)CC[C@@H](O)CC2)cn(O)c1=O` [MILITARINONE A], the pIC50 with A549 (Homo sapiens, A549) is 5.76; in the test on Streptococcus pneumoniae it was less than 3.82; in the test on Candida albicans it was less than 3.82; in the test with Staphylococcus aureus it was less than 3.82.

With `CC[C@@H](C)C[C@@H](C)/C=C(C)/C=C/C=C/C(=O)c1c(O)c(-c2ccc(O)cc2)c[nH]c1=O` [MILITARINONE B], the pIC50 is less than 3.92 in the test on A549 (Homo sapiens, A549); 5.59 in the test with Streptococcus pneumoniae; 4.36 in the test with Candida albicans; 5.68 in the test on Staphylococcus aureus.

In the case of `CC[C@@H](C)C[C@@H](C)/C=C(C)/C=C/C=C/C(=O)c1c(O)c(C2=CC[C@@H](O)CC2)cn(O)c1=O` [MILITARINONE E], the pIC50 in the test on A549 (Homo sapiens, A549) was 5.80; in the test on Streptococcus pneumoniae it was less than 3.82; in the test on Candida albicans, less than 3.82; in the test with Staphylococcus aureus, less than 3.82.

As to `CC[C@@H](C)C[C@@H](C)/C=C(C)/C=C/C=C/C(=O)c1c(O)c([C@]23CC[C@H](CC2)O3)cn(O)c1=O` [MILITARINONE F], the pIC50 in the test on A549 (Homo sapiens, A549) is less than 3.92; with A549 (a549) it was less than 3.92; with Streptococcus pneumoniae, less than 3.82; in the test on Staphylococcus aureus, less than 3.82.
